Legend:
Assay in all cases: relative viability (nuclei count vs DMSO), 5 days (fraction); higher = more cells survive
YM155 + Decitabine = compound: COCC[n+]1c2c(n(Cc3cnccn3)c1C)C(=O)c1ccccc1C2=O [YM155] + Nc1ncn([C@H]2C[C@H](O)[C@@H](CO)O2)c(=O)n1 [Decitabine] (partner 2 µM)
In short: (§1)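 Relative viability is defined as nuclei in treated wells over nuclei in vehicle wells. Duplicate plates were run and medians reported. Lung cancer cell lines in 1536-well plates were dosed by pin tool one day after seeding, with one drug or with a fixed anchor-drug dose plus five library-drug doses (not always all listed) in √10 steps, and nuclei were counted after 5 days.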

YM155 + Linsitinib = compound: COCC[n+]1c2c(n(Cc3cnccn3)c1C)C(=O)c1ccccc1C2=O [YM155] + C[C@]1(O)C[C@@H](c2nc(-c3ccc4ccc(-c5ccccc5)nc4c3)c3c(N)nccn32)C1 [Linsitinib] (partner 1 µM)
In short: as §1

YM155 + Trametinib = compound: COCC[n+]1c2c(n(Cc3cnccn3)c1C)C(=O)c1ccccc1C2=O [YM155] + CC(=O)Nc1cccc(-n2c(=O)n(C3CC3)c(=O)c3c(Nc4ccc(I)cc4F)n(C)c(=O)c(C)c32)c1 [Trametinib] (partner 0.02 µM)
In short: as §1

Quizartinib + Luminespib = compound: CC(C)(C)c1cc(NC(=O)Nc2ccc(-c3cn4c(n3)sc3cc(OCCN5CCOCC5)ccc34)cc2)no1 [Quizartinib] + CCNC(=O)c1noc(-c2cc(C(C)C)c(O)cc2O)c1-c1ccc(CN2CCOCC2)cc1 [Luminespib] (partner 0.01 µM)
In short: as §1

| Cell Line | relative viability (YM155 + Decitabine; first compound 0.002 µM) | relative viability (YM155 + Decitabine; first compound 0.006325 µM) | relative viability (YM155 + Decitabine; first compound 0.02 µM) | relative viability (YM155 + Decitabine; first compound 0.06325 µM) | relative viability (YM155 + Linsitinib; first compound 0.002 µM) | relative viability (YM155 + Linsitinib; first compound 0.006325 µM) | relative viability (YM155 + Linsitinib; first compound 0.02 µM) | relative viability (YM155 + Linsitinib; first compound 0.06325 µM) | relative viability (YM155 + Trametinib; first compound 0.002 µM) | relative viability (YM155 + Trametinib; first compound 0.006325 µM) | relative viability (YM155 + Trametinib; first compound 0.02 µM) | relative viability (YM155 + Trametinib; first compound 0.06325 µM) | relative viability (Quizartinib + Luminespib; first compound 0.001 µM) | relative viability (Quizartinib + Luminespib; first compound 0.003162 µM) | relative viability (Quizartinib + Luminespib; first compound 0.01 µM) | relative viability (Quizartinib + Luminespib; first compound 0.03162 µM) | relative viability (Quizartinib + Luminespib; first compound 0.1 µM) |
| --- | --- | --- | --- | --- | --- | --- | --- | --- | --- | --- | --- | --- | --- | --- | --- | --- | --- |
| 201T | 0.825 | 0.838 | 0.851 | 0.88 | 0.98 | 0.984 | 1.03 | 1.06 | 0.701 | 0.72 | 0.702 | 0.761 | 1.01 | 1.01 | 0.963 | 1.01 | 1.01 |
| A549 | 0.413 | 0.215 | 0.29 | 0.24 | 0.61 | 0.576 | 0.544 | 0.732 | – | – | – | – | – | – | – | – | – |
| A-427 | 0.525 | 0.567 | 0.571 | 0.466 | 1.06 | 1.22 | 1.12 | 1.09 | 0.739 | 0.796 | 0.757 | 0.526 | 1.03 | 0.777 | 0.988 | 0.506 | 1.01 |
| ABC-1 | – | 0.84 | 0.383 | 0.308 | 0.727 | 0.457 | 0.153 | 0.233 | – | – | – | – | 0.67 | 0.445 | 0.504 | – | 0.498 |
| BEN | 0.684 | 0.712 | 0.718 | 0.741 | 0.922 | 1.03 | 0.878 | 0.929 | 0.984 | 0.864 | 0.951 | 1.2 | 0.421 | 0.33 | 0.307 | 0.384 | 0.214 |
| CAL-12T | – | – | – | – | 0.818 | 0.98 | 0.9 | 0.781 | 0.281 | 0.337 | 0.346 | 0.333 | 0.456 | 0.373 | 0.638 | 0.357 | 0.363 |
| COR-L23 | 0.439 | 0.315 | 0.317 | 0.169 | 0.846 | 0.857 | 0.463 | 0.174 | 0.629 | 0.577 | 0.566 | 0.192 | 0.653 | 0.613 | 0.773 | 0.439 | 0.668 |
| COR-L 105 | 0.552 | 0.671 | 0.519 | 0.442 | 1 | 1.13 | 1.04 | 0.672 | 0.433 | 0.449 | 0.484 | 0.456 | 0.579 | 0.765 | 0.738 | 0.693 | 0.59 |
| Calu-6 | – | – | – | – | 0.946 | 0.836 | 0.848 | 0.175 | – | – | – | – | – | – | – | – | – |
| ChaGo-K-1 | 0.473 | 0.563 | 0.515 | 0.545 | – | – | – | – | 0.832 | 0.929 | 0.865 | 0.913 | 0.522 | 0.635 | 0.682 | 0.625 | 0.601 |
| EBC-1 | – | – | – | – | 0.8 | 0.925 | 0.864 | 0.755 | – | – | – | – | – | – | – | – | – |
| EKVX | 0.332 | 0.389 | 0.312 | 0.228 | 0.958 | 1.09 | 1.04 | 0.697 | 0.394 | 0.369 | 0.376 | 0.249 | 0.673 | 0.805 | 0.862 | 0.829 | 0.865 |
| EMC-BAC-2 | 1.01 | 1.05 | 0.948 | 0.651 | 0.85 | 0.83 | 0.597 | 0.818 | 0.924 | 0.96 | 0.968 | 0.429 | 1.11 | 1.15 | 1.2 | – | 1.23 |
| EPLC-272H | 0.322 | 0.33 | 0.352 | 0.365 | 1.22 | 1.19 | 1.1 | 1.06 | 0.294 | 0.27 | 0.335 | 0.302 | 0.439 | 0.418 | 0.44 | 0.399 | 0.168 |
| H3255 | 0.533 | 0.645 | 0.622 | 0.558 | 1.04 | 0.875 | 0.917 | 0.981 | 0.583 | 0.666 | 0.632 | 0.542 | 0.788 | 0.857 | 0.966 | 0.971 | 0.875 |
| HARA | – | 0.566 | 0.578 | 0.57 | 0.902 | 0.946 | 1.04 | 0.931 | – | 0.996 | 0.629 | 0.676 | – | 0.684 | 0.933 | 0.526 | 0.566 |
| HCC-15 | 0.634 | 0.627 | 0.704 | 0.658 | 0.809 | 0.627 | 0.872 | 0.798 | 0.331 | 0.389 | 0.283 | 0.423 | – | 0.281 | 0.197 | 0.346 | 0.33 |
| HCC-44 | 0.936 | 1 | 0.929 | 0.964 | 0.712 | 0.724 | 0.715 | 0.664 | 1.05 | 1.08 | 1.08 | 1.15 | – | 0.99 | 1.06 | 0.35 | 0.996 |
| HCC-78 | 0.647 | 0.751 | 0.739 | 0.741 | 0.615 | 0.494 | 0.486 | 0.598 | 0.698 | 0.756 | 0.785 | 0.879 | – | – | – | – | – |
